Legend:
[1] = system: WT MEFs cells; experiment: removal of Platinum-GpG adducts after cisplatin in forskolin-synchronized cells (immunoslot blotting); assay type: cell-based, mouse; settings: cisplatin given 12 hours vs 24 hours after forskolin treatment
Protocol: For cell culture, 1 ml of 10% (vol/vol) fetal bovine serum (FBS, Hyclone Co.) was added to 10 ml of Dulbecco's modified Eagle's medium (DMEM), followed by adding 100 μl of 1% (vol/vol) penicillin-streptomycin thereto. Then, NIH3T3 cells, wild-type mouse embryo fibroblasts (WT MEFs), and mouse embryo fibroblasts free from cryptochrome 1 (Cry1) and cryptochrome 2(Cry2) (Cry^DKO MEFs), respectively, were cultured in the above prepared culture medium. For bio-cycle synchronization, fused cells were further cultured for additional three (3) days after adding […] forskolin to the above medium. After separating genomic DNA from MEFs cells using QIAamp DNA Mini kit (Qiagen), […] of genomic DNA was moved to a nitrocellulose membrane by a BioDot SF Microfiltration apparatus (BioRad). The genomic DNA was heated at 80° C. for 2 hours under vacuum to be bound to the nitrocellulose membrane. Using a mono-antibody specifically recognizing Platinum-GpG adducts (Oncolyze), an amount of DNA damaged by cisplatin was relatively measured. Then, it may be identified whether DNA bound to the nitrocellulose membrane is quantified on Gel-doc after staining the DNA with Sybr-gold as a DNA staining reagent.

[2] = i.p. injection; cited from earlier work
[3] = system: ATR pathway; experiment: ATR pathway markers in mouse liver after cisplatin injection at CT08 or CT20 (immunoblotting); assay type: in vivo
Protocol: Before sacrificing C57BL/6J male mouse, the animal was placed under an environment where the daytime and nighttime were maintained for 12 hours each […], during 2 weeks. After exposing the mouse to CO2 and putting the animal to death, the liver of the mouse was cut into pieces having a size of less than 2 mm and washed with phosphate buffer saline (PBS), followed by freezing the same in liquid nitrogen. The frozen liver piece was pulverized using a ceramic mortar and pestle under liquid nitrogen to prepare a whole cell fusion. An extract of cytoplasm and nucleus protoplasm as well as the whole cell fusion were prepared. A chromatin-rich part could be obtained by treating 10-U DNase I (Promega) and 100-U micrococcal nuclease at 30° C. for 30 minutes and from the nucleus protoplasm through extraction using fillets. Each part was analyzed by SDS-PAGE and both of Ponceau S staining and immunoblotting. According to typical immunoblotting orders, amounts of proteins were determined using the above parts. For quantification of the immunoblotting, ImageQuant 5.2 software (Molecular Dynamics) was used. Antibodies used in the experiments were as follows: GAPDH, p-Chk1 5345, p53, p-p53 S15 (Cell Signaling Technology), ATR, RPA70 (Replication Protein A), Chk1, Actin (Santa Cruz Biotechnology), Clock, Cry1, Cry2, p-MCM2 5108, Tim (Timeless), Tipin (Bethyl Laboratory), histone H3 (Millipore), Per2 (BD Biosciences) and platinum GpG (Oncolyze). Tim and Cry1, Tim protein complexes were precipitated using protein A/G-coupled sepharose (Sigma) collected beforehand as well as an anti-Tim antibody. In order to detect Cry1 precipitated together with Tim, immunoblotting was implemented. In the present disclosure, CT refers to a time having passed from a time period when the bio-cyclic rhythm was induced. For instance, CT08 means 8 hours after the induction of the bio-cyclic rhythm, and CT20 means 20 hours after the induction of the bio-cyclic rhythm. […]

[4] = system: ATR; experiment: phosphorylation of p53 and Chk1 (proxy marker of ATR) after UV radiation in forskolin-synchronized cells; assay type: cell-based, mouse; settings: NIH3T3 cells
Protocol: (§1) For cell culture, 1 ml of 10% (vol/vol) fetal bovine serum (FBS, Hyclone Co.) was added to 10 ml of Dulbecco's modified Eagle's medium (DMEM), followed by adding 100 μl of 1% (vol/vol) penicillin-streptomycin thereto. Then, NIH3T3 cells, wild-type mouse embryo fibroblasts (WT MEFs), and mouse embryo fibroblasts free from cryptochrome 1 (Cry1) and cryptochrome 2(Cry2) (Cry^DKO MEFs), respectively, were cultured in the above prepared culture medium. For bio-cycle synchronization, fused cells were further cultured for additional three (3) days after adding […] forskolin to the above medium. For UV radiation, using a germicidal lamp (GE) mainly emitting UV-C beam, UV light was emitted to the fused cells by 5 J/m^2. Then, a fluorescence rate of the incident beam was measured using a UV-C sensor. An extract of cytoplasm and nucleus protoplasm as well as the whole cell fusion were prepared. A chromatin-rich part could be obtained by treating 10-U DNase I (Promega) and 100-U micrococcal nuclease at 30° C. for 30 minutes and from the nucleus protoplasm through extraction using fillets. Each part was analyzed by SDS-PAGE and both of Ponceau S staining and immunoblotting. According to typical immunoblotting orders, amounts of proteins were determined using the above parts. For quantification of the immunoblotting, ImageQuant 5.2 software (Molecular Dynamics) was used. […]

[5] = system: cryptochrome 1 (Cry1); experiment: Cry1 expression over time after forskolin bio-cycle synchronization in WT MEFs (immunoblotting); assay type: cell-based, mouse
Protocol: as §1, with “medium.” for “medium. For UV radiation, using a germicidal lamp (GE) mainly emitting UV-C beam, UV light was emitted to the fused cells by 5 J/m^2. Then, a fluorescence rate of the incident beam was measured using a UV-C sensor.”

Row | Structure (SMILES) | removal rate of Platinum-GpG [1] | time until cisplatin reaches the liver [2] | accumulation of replicated protein A (RPA70) in chromatin ([3]; liver chromatin, after cisplatin injection at CT20) | p-MCM2 signal, mouse at CT20 as compared to the mouse at CT08 ([3]; mouse liver, at 8 hours or later after the cisplatin injection) | extents of expression of p-Chk1 and p-p53 ([3]; mouse liver, cisplatin injected at CT08 and CT20) | extent of phosphorylation of p53 and Chk1, cell 12 hours after forskolin treatment as compared to cell 24 hours after [4] | time of maximum expression of cryptochrome 1 (Cry1) after forskolin treatment [5] | time of minimum expression of cryptochrome 1 (Cry1) after forskolin treatment [5]
1 | N.N.[Cl][Pt][Cl] [cisplatin] | higher at 12 hours after forskolin treatment | about 2 hours | accumulation of replicated protein A was identified in chromatin | ≥ 2 times | insignificant |  |  | 
2 | C=C[C@@]1(C)CC(=O)[C@]2(O)[C@@]3(C)[C@@H](O)CCC(C)(C)[C@@H]3[C@H](O)[C@H](OC(C)=O)[C@@]2(C)O1 [forskolin] |  |  |  |  |  | 2 to 3 times | 12 h | 24 h

From patent US9884086B2, “Administration method for anticancer drugs” (Dong-A University Research Foundation for Industry—Academy …, priority 2014, dated 2018)
